Values after ≈ are worked out from the molar mass of the structure shown.
Experiments:
M. tuberculosis H37Rv = experiment: Microplate alamar blue assay (MABA), antitubercular activity; type: cell-based, Mycobacterium tuberculosis; conditions: 5 days at 37 C, lowest concentration preventing colour change blue to pink; for MIC: Mycobacterium tuberculosis, H37RV, 120 h
[1] = system: human lung cancer cell line A549; experiment: MTT-based cytotoxicity assay; type: cell-based; conditions: for cytotoxicity towards A549 (in words): A549, up to 100 µg/mL, compared to paclitaxel; for IC50: Homo sapiens, A549, MTT, up to 100 µg/mL, average of three independent experiments
Experimental: Cellular conversion of MTT [3-(4,5-dimethylthiazo-2-yl)-2,5-diphenyl-tetrazolium bromide] into a formazan product was used to estimate cytotoxic activity (IC50) of some of the compounds against cell-line A549 (lung adenocarcinoma) up to concentrations of 100 µg/mL using 5×10^3cells/well in a 96-well flat-bottom micro plate and maintained at 37 °C in 95% humidity and 5% CO2 for overnight using paclitaxel as the positive control.
Certain therapeutic properties are to be determined to examine the antimycobacterial potential of a drug. Toxicity is one of these criteria.

Row | SMILES | MIC (M. tuberculosis H37Rv) [µg/mL] | melting point [°C] | cytotoxicity towards A549 (in words) [1] | IC50 [1] [µg/mL] | MIC values M. tuberculosis H37Rv (M. tuberculosis H37Rv) [µg/mL]
1 | O=CN1N=C(c2ccc(-n3cccc3)cc2)CC1c1ccccc1 (stereo not shown) [Compound 4a, 3-(4-(1H-Pyrrol-1-yl) Phenyl)-5-Phenyl-4,5-Dihydro-1H-Pyrazole-1-Carbaldehydes] | 100 (≈ 317 µM) | 178 to 180 | – | – | –
2 | O=CN1N=C(c2ccc(-n3cccc3)cc2)CC1c1ccc(Cl)cc1 (stereo not shown) [Compound 4b, (4-(1H-Pyrrol-1-yl) Phenyl)-5-(4-Chlorophenyl)-4,5-Dihydro-1H-Pyrazole-1-Carbaldehyde] | 12.5 (≈ 35.7 µM) | 168 to 170 | moderate cytotoxicity | 75.6 (≈ 216 µM) | –
3 | O=CN1N=C(c2ccc(-n3cccc3)cc2)CC1c1cccc(Cl)c1Cl (stereo not shown) [Compound 4c, (4-(1H-pyrrol-1-yl)phenyl)-5-(2,3-Dichlorophenyl)-4,5-Dihydro-1H-Pyrazole-1-Carbaldehyde] | 12.5 (≈ 32.5 µM) | 163 to 165 | – | – | –
4 | O=CN1N=C(c2ccc(-n3cccc3)cc2)CC1c1ccc(Cl)cc1Cl (stereo not shown) [Compound 4d, (4-(1H-pyrrol-1-yl)Phenyl)-5-(2,4-Dichlorophenyl)-4,5-Dihydro-1H-Pyrazole-1-Carbaldehyde] | 25 (≈ 65.1 µM) | 228 to 230 | – | – | –
5 | O=CN1N=C(c2ccc(-n3cccc3)cc2)CC1c1c(Cl)cccc1Cl (stereo not shown) [Compound 4e, (4-(1H-pyrrol-1-yl)Phenyl)-5-(2,6-Dichlorophenyl)-4,5-Dihydro-1H-Pyrazole-1-Carbaldehyde] | 25 (≈ 65.1 µM) | 208 to 210 | – | – | –
6 | Cc1ccc(C2CC(c3ccc(-n4cccc4)cc3)=NN2C=O)cc1 (stereo not shown) [Compound 4f, (4-(1H-pyrrol-1-yl)Phenyl)-5-(p-Tolyl)-4,5-Dihydro-1H-Pyrazole-1-Carbaldehyde] | 25 (≈ 75.9 µM) | 148 to 150 | – | – | –
7 | COc1ccc(C2CC(c3ccc(-n4cccc4)cc3)=NN2C=O)cc1 (stereo not shown) [Compound 4g, (4-(1H-pyrrol-1-yl)phenyl)-5-(4-Methoxyphenyl)-4,5-Dihydro-1H-Pyrazole-1-Carbaldehyde] | 6.25 (≈ 18.1 µM) | 112 to 114 | – | – | 6.25 (≈ 18.1 µM)
8 | COc1cccc(C2CC(c3ccc(-n4cccc4)cc3)=NN2C=O)c1 (stereo not shown) [Compound 4h, (4-(1H-Pyrrol-1-yl)Phenyl)-5-(3-Methoxyphenyl)-4,5-Dihydro-1H-Pyrazole-1-Carbaldehyde] | 6.25 (≈ 18.1 µM) | 158 to 160 | moderate cytotoxicity | 76.5 (≈ 222 µM) | 6.25 (≈ 18.1 µM)
9 | COc1ccc(C2CC(c3ccc(-n4cccc4)cc3)=NN2C=O)c(OC)c1 (stereo not shown) [Compound 4i, (4-(1H-Pyrrol-1-yl)Phenyl)-5-(2,4-Dimethoxyphenyl)-4,5-Dihydro-1H-Pyrazole-1-Carbaldehyde] | 3.12 (≈ 8.32 µM) | 160 to 162 | moderate cytotoxicity | 73.3 (≈ 195 µM) | 3.125 (≈ 8.32 µM)
10 | COc1ccc(C2CC(c3ccc(-n4cccc4)cc3)=NN2C=O)cc1OC (stereo not shown) [Compound 4j, (4-(1H-Pyrrol-1-yl) Phenyl)-5-(3,4-Dimethoxyphenyl)-4,5-Dihydro-1H-Pyrazole-1-Carbaldehyde] | 12.5 (≈ 33.3 µM) | 133 to 135 | moderate cytotoxicity | 70.4 (≈ 187 µM) | –
11 | O=CN1N=C(c2ccc(-n3cccc3)cc2)CC1c1ccc(F)cc1 (stereo not shown) [Compound 4k, (4-(1H-Pyrrol-1-yl)phenyl)-5-(4-Fluorophenyl)-4,5-Dihydro-1H-Pyrazole-1-Carbaldehyde] | 12.5 (≈ 37.5 µM) | – | – | – | –
12 | CC(C)c1ccc(C2CC(c3ccc(-n4cccc4)cc3)=NN2C=O)cc1 (stereo not shown) [Compound 4l, (4-(1H-Pyrrol-1-yl)Phenyl)-5-(4-Isopropylphenyl)-4,5-Dihydro-1H-Pyrazole-1-Carbaldehyde] | 100 (≈ 280 µM) | 140 to 142 | moderate cytotoxicity | 71.1 (≈ 199 µM) | –
13 | O=CN1N=C(c2ccc(-n3cccc3)cc2)CC1c1cccc(Br)c1 (stereo not shown) [Compound 4m, (4-(1H-Pyrrol-1-yl)Phenyl)-5-(3-Bromophenyl)-4,5-Dihydro-1H-Pyrazole-1-Carbaldehyde] | 12.5 (≈ 31.7 µM) | 168 to 170 | moderate cytotoxicity | 76 (≈ 193 µM) | –
14 | O=CN1N=C(c2ccc(-n3cccc3)cc2)CC1c1cccc(Oc2ccccc2)c1 (stereo not shown) [Compound 4n, (4-(1H-pyrrol-1-yl)Phenyl)-5-(3-Phenoxyphenyl)-4,5-Dihydro-1H-Pyrazole-1-Carbaldehyde] | 12.5 (≈ 30.7 µM) | 128 to 130 | moderate cytotoxicity | 72.9 (≈ 179 µM) | –
15 | O=CN1N=C(c2ccc(-n3cccc3)cc2)CC1c1ccco1 (stereo not shown) [Compound 4o, (4-(1H-Pyrrol-1-yl)phenyl)-5-(Furan-2-yl)-4,5-Dihydro-1H-pyrazole-1-Carbaldehyde] | 50 (≈ 164 µM) | 152 to 154 | – | – | –
16 | CC(=O)O[C@H]1C(=O)[C@@]2(C)[C@H]([C@H](OC(=O)c3ccccc3)[C@]3(O)C[C@H](OC(=O)[C@H](O)[C@@H](NC(=O)c4ccccc4)c4ccccc4)C(C)=C1C3(C)C)[C@]1(OC(C)=O)CO[C@@H]1C[C@@H]2O [paclitaxel, reference compound] | – | – | – | 47.6 (≈ 55.8 µM) | –
17 | NC(=O)c1cnccn1 [pyrazinamide, reference compound] | 3.12 (≈ 25.4 µM) | – | – | – | –
18 | [H]/N=C(/N)N[C@H]1[C@H](O)[C@@H](O)[C@H](O[C@@H]2O[C@@H](C)[C@](O)(C=O)[C@H]2O[C@@H]2O[C@@H](CO)[C@H](O)[C@@H](O)[C@@H]2NC)[C@@H](N/C(N)=N\[H])[C@@H]1O [streptomycin, reference compound] | 6.25 (≈ 10.7 µM) | – | – | – | –
